Test results taken from ChEMBL document CHEMBL1155713, “Three new peroxides from the sponge Plakinastrella species” (2001).
≈ marks a conversion by molar mass, not a printed value.

Assays:
Assay type in all cases: functional
Candida albicans [1] = assay: Antifungal activity against Candida albicans in Sabouraud dextrose broth
Candida albicans [2] = assay: Antifungal activity against Candida albicans in RPMI medium
Aspergillus fumigatus = assay: Antifungal activity against Aspergillus fumigatus

Row | SMILES | MIC (Candida albicans [1]) | MIC (Candida albicans [2]) | IC90 (Aspergillus fumigatus)
1 | CC/C=C/C=C/C=C/CCCCCCCC[C@@]1(C)C[C@](C)(CC(=O)O)OO1 [EPIPLAKINIC ACID F] | 25 µg/mL (≈ 66 µM) | 6.25 µg/mL (≈ 16.5 µM) | 25 µg/mL (≈ 66 µM)
2 | CC/C=C/C=C/C=C/CCCCCCCC[C@]1(C)C[C@](C)(CC(=O)O)OO1 [PLAKINIC ACID F] | 25 µg/mL (≈ 66 µM) | 3.1 µg/mL (≈ 8.19 µM) | 25 µg/mL (≈ 66 µM)
3 | C[C@@]1(CCCCCCCCCc2ccc(O)cc2)C[C@]2(C)OC(=O)C[C@@H]2OO1 [PLAKORTOLIDE F] | > 125 µg/mL | > 125 µg/mL | > 125 µg/mL
